From US6476008B1, “Use of diphosphonic acids or the physiologically acceptable salts or esters thereof in the preventive treatment of after-effects resulting from enlargement or replacement of the bladder” (Roche Diagnostics GmbH, priority 1997, dated 2002)

Key:
[1] = system: rats with chronic kidney insufficiency and augmentation using gastrointestinal segments; assay: Chronic kidney insufficiency plus augmentation plasty, bone mass; type: in vivo, rat; conditions: rats with CNI (5/6 nephrectomy) and augmentation plasty, ibandronate administration
Source text: In order to increase the clinical relevance of the results, the test procedure of Example 2 was repeated on rats with chronic kidney insufficiency. This test arrangement is based on a frequent situation among human beings in which a bladder previously damaged by an existing disturbance in urine transport (reflux or obstruction) leads to kidney insufficiency as a secondary result. It is known that kidney insufficiency in itself results in a disturbance in bone mineralisation (renal osteopathy), so that the need for a bladder extension plasty using segments of intestine further increases the risk of disturbed mineralisation. Kidney insufficiency was induced by 5/6 nephrectomy (compare Example 2). The other test procedure was as in Example 1.

[2] = system: female Sprague-Dawley rats augmented with excluded sigma; assay: Prevention of osteopenia after bladder augmentation plasty, bone density by DEXA; type: in vivo, rat; conditions: daily s.c. ibandronic acid up to 20 μg P/kg, 4 months, monthly DEXA
Source text: Preventive effect of diphosphonates before the occurrence of osteopenia after augmentation plasty. Groups of 12 female Sprague-Dawley rats (6-8 week old, about […] body weight) were provided with stomach and ileum augmentation plasties and 12 animals were dummy-operated. At the same time, 24 animals were augmented with excluded sigma and divided at random into two groups, one group daily receiving a subcutaneous application of 0.9% NaCl (control) and the other group a daily subcutaneous application of ibandronic acid in the form of an aqueous solution in a dose up to 20 μg P/kg. The operative configuration of the augmentation plasties was after Lauvetz et al (J. Urol. 154: 899-902, 1995). The test period was 4 months, corresponding to about 4 years of human life (E. Grimm, Amer. J. Dig Dis. 7: 17-20, 1962).

CCCCCN(C)CCC(O)(P(=O)(O)O)P(=O)(O)O [ibandronate, 1-hydroxy-3-(N-methyl-N-pentyl)aminopropylidene-1,1-diphosphonic acid] was tested, and the “reduction in bone mass” value [1] was “reduction in bone mass was prevented” and the “reduction in bone mass (DEXA bone density, lumbar vertebrae)” value [2] was “no reduction in bone mass”.
